# Columns and labels:
# Type in all cases: cell-based
# [1] = system: UM-UC-14 (FGFR3-S249C) cells; assay: cell proliferation assay (CellTiterGlo), UM-UC-14 cells; details: UMUC14, 72 h
# Outline: (§1)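 IC50 for growth inhibition, normalized to DMSO-treated cells as viable. Cell number was estimated from ATP luminescence (CellTiterGlo) following incubation with compound at varying concentrations.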
# [2] = system: SNU-16 (FGFR2-amplification) cells; assay: cell proliferation assay (CellTiterGlo), SNU-16 cells; details: Homo sapiens, 72 hours
# Outline: as §1
# [3] = system: DMS-114 (FGFR1 overexpression) cells; assay: cell proliferation assay (CellTiterGlo), DMS-114 cells; details: Homo sapiens, DMS-114, 72 h
# Outline: as §1
# [4] = system: RT-112 (FGFR3-Tacc3 fusion) cells; assay: cell proliferation assay (CellTiterGlo), RT-112 cells; details: Homo sapiens, RT-112, RT112 cells, 72 hours
# Outline: as §1
Compound,IC50 [2],IC50 [1],IC50 [3],IC50 [4]
Cc1nc2ccc(Oc3ccc4ncc(-c5cnn(C6CCNCC6)c5)nc4c3C3CC3)cc2[nH]1 [Compound 289],0.02 to 0.1 µM,0.02 to 0.1 µM,0.1 to 0.4 µM,0.02 to 0.1 µM
Cc1nc2ccc(Oc3ccc4ncc(-c5cnn(CC6CCNCC6)c5)nc4c3C)cc2[nH]1 [Compound 292],0.1 to 0.4 µM,0.02 to 0.1 µM,≥ 0.4 µM,0.1 to 0.4 µM
Cc1nc2ccc(Oc3ccc4ncc(-c5cnn(C6CCNCC6)c5)nc4c3C)cc2[nH]1 [Compound 293],0.02 to 0.1 µM,0.02 to 0.1 µM,0.1 to 0.4 µM,0.02 to 0.1 µM
Cc1nc2ccc(Oc3ccc4ncc(-c5cnn(CCC6CCN(C7COC7)CC6)c5)nc4c3Cl)cc2[nH]1 [Compound 294],0.02 to 0.1 µM,< 0.02 µM,0.1 to 0.4 µM,0.02 to 0.1 µM
Cc1nc2ccc(Oc3ccc4ncc(-c5cnn(C67CCN(CC6)C7)c5)nc4c3Cl)cc2[nH]1 [Compound 295],≥ 0.4 µM,≥ 0.4 µM,≥ 0.4 µM,≥ 0.4 µM
Cc1nc2ccc(Oc3ccc4ncc(-c5cnn(CCC6CCN(CC(F)(F)F)CC6)c5)nc4c3Cl)cc2[nH]1 [Compound 296],0.02 to 0.1 µM,0.02 to 0.1 µM,≥ 0.4 µM,0.02 to 0.1 µM
CCC(=O)N1CCC(CCn2cc(-c3cnc4ccc(Oc5ccc6nc(C)[nH]c6c5)c(Cl)c4n3)cn2)CC1 [Compound 300],0.02 to 0.1 µM,< 0.02 µM,≥ 0.4 µM,0.02 to 0.1 µM
Cc1nc2ccc(Oc3ccc4ncc(-c5cnn(C6CCN(CCO)CC6)c5)nc4c3Cl)cc2[nH]1 [Compound 301],< 0.02 µM,0.02 to 0.1 µM,≥ 0.4 µM,< 0.02 µM
Cc1nc2ccc(Oc3ccc4ncc(-c5cnn(CC6CC(F)(F)C6)c5)nc4c3C)cc2[nH]1 [Compound 302],0.1 to 0.4 µM,0.1 to 0.4 µM,≥ 0.4 µM,0.1 to 0.4 µM
Cc1nc2ccc(Oc3ccc4ncc(-c5cnn(C6CCN(CC(F)(F)F)CC6)c5)nc4c3Cl)cc2[nH]1 [Compound 303],0.02 to 0.1 µM,0.02 to 0.1 µM,≥ 0.4 µM,0.02 to 0.1 µM

# Further lines, with some results ahead:
IC50 [2],Compound,IC50 [1],IC50 [3],IC50 [4]
0.02 to 0.1 µM,Cc1nc2ccc(Oc3ccc4ncc(-c5cnn(CC(=O)N6CCC(F)C6)c5)nc4c3Cl)cc2[nH]1 (stereo not shown) [Compound 290],0.02 to 0.1 µM,≥ 0.4 µM,0.02 to 0.1 µM
0.02 to 0.1 µM,Cc1nc2ccc(Oc3ccc4ncc(-c5cnn(CC6CC(N7CCC7)C6)c5)nc4c3Cl)cc2[nH]1 (stereo not shown) [Compound 291],0.02 to 0.1 µM,≥ 0.4 µM,0.02 to 0.1 µM
0.02 to 0.1 µM,Cc1nc2ccc(Oc3ccc4ncc(-c5cnn(CC6CC(N(C)C)C6)c5)nc4c3Cl)cc2[nH]1 (stereo not shown) [Compound 297],0.02 to 0.1 µM,≥ 0.4 µM,0.02 to 0.1 µM
0.1 to 0.4 µM,C=C1COC(Cn2cc(-c3cnc4ccc(Oc5ccc6nc(C)[nH]c6c5)c(Cl)c4n3)cn2)OC1 [Compound 298],0.02 to 0.1 µM,≥ 0.4 µM,0.02 to 0.1 µM
0.02 to 0.1 µM,Cc1nc2ccc(Oc3ccc4ncc(-c5cnn(CC6OCC7(COC7)CO6)c5)nc4c3Cl)cc2[nH]1 [Compound 299],0.02 to 0.1 µM,≥ 0.4 µM,0.02 to 0.1 µM
0.1 to 0.4 µM,Cc1nc2ccc(Oc3ccc4ncc(-c5cnn(CCC6CCNCC6)c5)nc4c3Cl)cc2[nH]1 [Compound 304],0.02 to 0.1 µM,≥ 0.4 µM,0.02 to 0.1 µM
< 0.02 µM,Cc1nc2ccc(Oc3ccc4ncc(-c5cnn(CCC6CCN(C)CC6)c5)nc4c3Cl)cc2[nH]1 [Compound 305],< 0.02 µM,0.1 to 0.4 µM,< 0.02 µM
0.1 to 0.4 µM,Cc1nc2ccc(Oc3ccc4ncc(-c5cnn(CC(=O)N6CCC(O)C6)c5)nc4c3Cl)cc2[nH]1 (stereo not shown) [Compound 306],0.1 to 0.4 µM,≥ 0.4 µM,0.02 to 0.1 µM
< 0.02 µM,Cc1nc2ccc(Oc3ccc4ncc(-c5cnn(C[C@@H]6CCS(=O)(=O)C6)c5)nc4c3Cl)cc2[nH]1 [Compound 307],0.02 to 0.1 µM,0.1 to 0.4 µM,< 0.02 µM
